Data set [1] can be described thus: Metabolite identification in dog plasma. It is filed as in vivo, beagle dogs. The settings on record: oral 8 mg/kg BPI-460372, average of male and female pooled samples. As to the method:
(§1) The plasma samples were acquired from SD rats (n=6, 3 female and 3 male) and beagle dogs (n=6, 3 female and 3 male) after administration of 12 mg/kg and 8 mg/kg of BPI-460372, respectively. The rat urine, feces, and bile samples were acquired in SD rats after administration of 6 mg/kg of BPI-460372.
(§2) Equal volume from each rat was pooled together to get 1 male and 1 female 0-24 h plasma samples. An equal percentage by volume of individual urine sample (0-8, 8-24, and 24-48 h) from 3 female and 3 male rats was pooled by time interval across rats, respectively, resulting in two pooled urine samples (1 male and 1 female). An equal percentage by weight of individual feces samples (0-8, 8-24, and 24-48 h) was pooled by time interval across female and male rats, resulting in two pooled fecal samples. An equal percentage by volume of individual bile samples (0-4, 4-8, 8-24, and 24-48 h) was pooled by time interval across female and male rats, resulting in two pooled bile samples. […] Equal volumes from 3 female and 3 male rats were pooled together to get two 0-48 h plasma samples. For blank samples of plasma, urine, and bile, equal volume was pooled across subjects. For a blank sample of feces, equal weight was pooled across rats.
(§3) The pooled plasma, feces, and bile samples were extracted by adding 3-fold volume of acetonitrile, and the mixture was vortexed (1 min) and sonicated (1 min) before centrifugation (7220 g, 5 min). The pooled urine samples were centrifuged (7220 g, 5 min). Then the supernatant was transferred into a clean tube and evaporated to dryness under the nitrogen stream. The residues were redissolved with an appropriate volume of acetonitrile/water (20: 80, v: v). After centrifugation, the redissolved solution was transferred into an HPLC vial for UHPLC-Orbitrap-HRMS (15000 g, 10 min, 4°C).

The nature of data set [2]: Metabolite identification in rat plasma, urine, feces and bile. The format is in vivo, SD rats. The settings on record: for Relative abundance of MS peak areas, Rat Feces 0-48 h / Relative abundance of MS peak areas, Rat Urine 0-48 h / Relative abundance of MS peak areas, Rat Bile 0-48 h: oral 6 mg/kg BPI-460372, average of male and female pooled samples; for Relative abundance of MS peak areas, Rat Plasma 0-24 h: oral 12 mg/kg BPI-460372, average of male and female pooled samples. On the procedure:
as §1, §2, §3

The test system of data set [3] is cysteine S-conjugate β-lyase. Briefly: Effect of cysteine S-conjugate β-lyase inhibitor AOAA on the metabolism of BPI-460372 (rat urine). The following applies: for Area ratio in rat urine, mean (%CV): 20 mg/kg BPI-460372 + 100 mg/kg AOAA, once daily 21 days, urine 0-48 h on day 21; for Change of area ratio in rat urine on coadministration with AOAA: 20 mg/kg BPI-460372 with versus without 100 mg/kg AOAA.
Method: To investigate the effect of cysteine S-conjugate β-lyase on the metabolism of BPI-460372, SD rats were treated with 20 mg/kg BPI-460372 alone (n=3, male) or 20 mg/kg BPI-460372 coadministration with 100 mg/kg cysteine S-conjugate β-lyase inhibitor AOAA (n=3, male), once daily for 21 consecutive days. On day 21, urine samples were collected at 0-8, 8-24 and 24-48 h. The same percentage of urine samples from each rat was taken at these three time intervals and mixed. The samples were analyzed by LC-MS/MS and then semi-quantified using the peak area ratio of analyte versus IS.

In another data set the test system is human hepatocytes. Briefly: Metabolism and metabolite formation in hepatocytes. The following applies: human hepatocytes, 10 µM BPI-460372, 4 h incubation.
Another data set deals with dog hepatocytes. Briefly: Metabolism and metabolite formation in hepatocytes. The settings on record: beagle dog hepatocytes, 10 µM BPI-460372, 4 h incubation. It is filed as in vitro ADME, beagle dog. The text has this:
(§4) All the samples were duplicates.

A further data set relates to rat hepatocytes. Briefly: Metabolism and metabolite formation in hepatocytes. It is filed as in vitro ADME, SD rat. The settings on record: SD rat hepatocytes, 10 µM BPI-460372, 4 h incubation.
From the text: as §4

The test system of another data set is mouse hepatocytes. Nature of the data set: Metabolism and metabolite formation in hepatocytes. It is filed as in vitro ADME, ICR mouse. The settings on record: ICR mouse hepatocytes, 10 µM BPI-460372, 4 h incubation.
From the text: as §4

The test system of another data set is TEAD proteins. Briefly: Covalent binding to TEAD proteins (in vitro). The settings on record: in vitro studies.
In the next data set the test system is monkey hepatocytes. Nature of the data set: Metabolism and metabolite formation in hepatocytes. The settings on record: cynomolgus monkey hepatocytes, 10 µM BPI-460372, 4 h incubation. The format is in vitro ADME, cynomolgus monkey.
From the text: as §4

The next data set relates to TEAD palmitoylation. Briefly: Inhibition of TEAD palmitoylation (in vitro). The following applies: in vitro studies. The format is biochemical.
Another data set concerns the target T1, CYP1A2 (Homo sapiens, UniProt P05177).
T1 sequence (P05177 1-516): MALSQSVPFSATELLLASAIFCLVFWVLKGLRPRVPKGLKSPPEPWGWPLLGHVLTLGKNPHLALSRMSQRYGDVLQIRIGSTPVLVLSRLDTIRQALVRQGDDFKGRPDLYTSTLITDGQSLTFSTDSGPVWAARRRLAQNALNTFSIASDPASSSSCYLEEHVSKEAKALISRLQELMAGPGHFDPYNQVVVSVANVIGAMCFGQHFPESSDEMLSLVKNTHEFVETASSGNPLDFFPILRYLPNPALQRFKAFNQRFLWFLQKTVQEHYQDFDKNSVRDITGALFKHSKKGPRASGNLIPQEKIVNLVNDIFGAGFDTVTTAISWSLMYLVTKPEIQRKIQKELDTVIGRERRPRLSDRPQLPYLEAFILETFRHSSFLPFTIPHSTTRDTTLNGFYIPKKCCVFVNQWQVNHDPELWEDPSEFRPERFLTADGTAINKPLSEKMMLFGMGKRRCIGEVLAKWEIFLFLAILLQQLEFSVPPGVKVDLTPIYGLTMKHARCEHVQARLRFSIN
Briefly: Metabolic stability in HLMs with or without specific CYP inhibitor (α-naphthoflavone). The format is in vitro ADME. Further details: HLMs (1 mg protein·mL^-1); tissue BioIVT; host or cells: pooled human liver microsomes. The following applies: HLMs 1 mg protein/mL, substrate 1 μM, α-naphthoflavone 2 µM. On the procedure: (§5) Before starting the experiments, the HLMs were thawed gently on ice. Metabolic stability incubations were performed at 37 °C. The incubations contained 100 mM phosphate buffer saline (PBS, pH 7.4), HLMs (1 mg protein·mL^-1), dimethyl sulfoxide (DMSO, blank control) or a selective CYP inhibitor, and BPI-460372 or positive control substrates (final incubation concentration, 1 μM). The incubation process started with the addition of NADPH (1 mM final concentration) after a 5-minute preincubation period. The chemical inhibitors were as follows: a-naphthoflavone (2 µM) for CYP1A2, ticlopidine (20 µM) for 2B6, quercetin (20 µM) for CYP2C8, sulfaphenazole (20 µM) for CYP2C9, ticlopidine (200 µM) for CYP2C19, quinidine (20 µM) for CYP2D6, and ketoconazole (20 µM) for CYP3A [9]. Aliquots were maintained in acetonitrile containing internal standard (IS) at various time points, such as 0 min, 5 min, 10 min, 20 min, 30 min, and 60 min. All incubations were performed in triplicate, and the concentration in the supernatant was determined by liquid chromatography-tandem mass spectrometry (LC-MS/MS).
(§6) The elimination rate constant k (min^-1) was obtained by linear regression from the natural logarithm of the […] of the parent drug and the incubation time. The inhibition rate was calculated using equation 1 [10]: […]

A further data set deals with CYP2C8. Nature of the data set: Metabolic stability in HLMs with or without specific CYP inhibitor (quercetin). The format is in vitro ADME, human. The settings on record: HLMs 1 mg protein/mL, substrate 1 μM, quercetin 20 µM. As to the method:
as §5, §6

Method for human hepatocytes: 10 µM BPI-460372 was incubated in five species (human, cynomolgus monkey, beagle dog, SD rat, and ICR mouse) hepatocytes (1 × 10^6 cells·min^-1) at 37 °C for 4 h. 7-EC, as positive control, was incubated for 0 h and 4 h. For blank control, hepatocytes were inactivated by adding ice-cold acetonitrile, and then the BPI-460372 solution was added. All the samples were duplicates. Incubations were stopped using the same volume of cold acetonitrile. The tube was vortexed, and the duplicate samples were combined. Metabolite profiling and identification of BPI-460372 were conducted by using UHPLC-Orbitrap-HRMS. The samples of 7-EC were analyzed by LC-MS/MS and then semi-quantified using the peak area ratio of analyte versus IS.
For hepatocyte metabolite identification, the different metabolites of BPI-460372 were detected using an ACQUITY UPLC HSS T3 column (1.8 µm, 100 mm × 2.1 mm) and ACQUITY UPLC BEH C18 column (1.7 µm, 100 mm × 2.1 mm) for rat and dog metabolite identification. The mobile phase contained a mixture of 0.1% formic acid in water (A) and 0.1% formic acid in acetonitrile (B). The gradient elution program was as follows: 0.0-1.0 min, 5% B; 1.0-7.0 min, 5%-30% B; 7.0-12.0 min, 30%-80% B; 12.0-16.0 min, 80%-95% B; 16.0-18.0 min, 95% B; 18.0-18.1 min, 95%-5% B. Then, 5% B from 18.1 to 20.0 min was maintained for equilibration. The flow rate was set to 0.5 mL/min, and the column temperature was kept at 40°C. Eluted fractions were monitored by a UV detector at 314 nm.

As for `NCC(C(=O)O)n1c(=O)n(-c2ccc(C(F)(F)F)cc2)c2nccnc21` (centres unmarked) [M367], the “Relative abundance of MS peak areas, Dog Plasma 0-48 h” value in data set [1] was 0.83%. Also, in data set [2], the “Relative abundance of MS peak areas, Rat Feces 0-48 h” value (“Relative abundance … Rat Feces 0-48 h” below) is 2.77%; the “Relative abundance of MS peak areas, Rat Urine 0-48 h” value (“Relative abundance … Rat Urine 0-48 h” below) turned out to be 2.55%; the “Relative abundance of MS peak areas, Rat Plasma 0-24 h” value stood at 0.065%.
As for `CSCC(O)C(=O)N1CC(n2c(=O)n(-c3ccc(C(F)(F)F)cc3)c3nccnc32)C1` (centres unmarked) [M453], the “Relative abundance of MS peak areas, Dog Plasma 0-48 h” value in data set [1] was 3.58%. Also, in [2], the “Relative abundance … Rat Feces 0-48 h” value was found to be 1.57%; the “Relative abundance … Rat Urine 0-48 h” value was 17.25%; the “Relative abundance of MS peak areas, Rat Plasma 0-24 h” value stood at 0.05%. Besides, in data set [3], the “Area ratio in rat urine, mean (%CV)” value is 0.23 (23) and the “Change of area ratio in rat urine on coadministration with AOAA” value is reported as “reduced”.
Regarding `CC(O)C(=O)N1CC(n2c(=O)n(-c3ccc(C(F)(F)F)cc3)c3nccnc32)C1` (centres unmarked) [M407 (BPI-460430)], the “UV (314 nm) Peak Areas Relative Abundance” value in the data set with human hepatocytes is “+”; in the data set with dog hepatocytes, “+”; in the data set with rat hepatocytes, 2.75%; in the data set with mouse hepatocytes, 1.39%; in the data set with monkey hepatocytes, 3.61%. Moreover, the “Relative abundance of MS peak areas, Dog Plasma 0-48 h” value in [1] is 6.23%. Besides, the “Relative abundance of MS peak areas, Rat Bile 0-48 h” value (“Relative abundance … Rat Bile 0-48 h” below) in data set [2] is recorded as 0.72%. Further, the “Relative abundance … Rat Feces 0-48 h” value in [2] was found to be 5.94%. Besides, the “Relative abundance … Rat Urine 0-48 h” value in data set [2] is listed as 1.02%. Further, in [2], the “Relative abundance of MS peak areas, Rat Plasma 0-24 h” value turned out to be 16.39%. Also, in the data set on TEAD proteins, the “Covalent binding to TEAD proteins” value was “do not covalently bind”. Further, the “Activity: inhibition of TEAD palmitoylation” value in the data set with TEAD palmitoylation was “inactive”.
Regarding `O=C(C(O)CO)N1CC(n2c(=O)n(-c3ccc(C(F)(F)F)cc3)c3nccnc32)C1` (centres unmarked) [M423 (BPI-460456)], the “UV (314 nm) Peak Areas Relative Abundance” value in the data set on human hepatocytes was 2.36%; with dog hepatocytes, “+”; with rat hepatocytes, “+”; in the data set with mouse hepatocytes, “+”; with monkey hepatocytes, 2.01%. For the same compound, the “Relative abundance of MS peak areas, Dog Plasma 0-48 h” value in [1] is reported as 40.81%. In addition, the “Relative abundance … Rat Bile 0-48 h” value in [2] was 0.58%. The “Relative abundance … Rat Feces 0-48 h” value in [2] is listed as 9.07%. For the same compound, the “Relative abundance … Rat Urine 0-48 h” value in [2] was determined as 17.63%. Further, the “Relative abundance of MS peak areas, Rat Plasma 0-24 h” value in data set [2] is listed as 2.71%. For the same compound, the “Covalent binding to TEAD proteins” value in the data set on TEAD proteins was “do not covalently bind”. In the data set with TEAD palmitoylation, the “Activity: inhibition of TEAD palmitoylation” value is “inactive”. Moreover, the “Area ratio in rat urine, mean (%CV)” value in data set [3] is listed as 19.0 (57).
For the compound `CCOc1ccc(NC(C)=O)cc1` [Phenacetin, phenacetin, reference compound], on CYP1A2, the “Inhibition Rate” value came to 79.2%.
On to `O=c1n(-c2ccc(C(F)(F)F)cc2)c2nccnc2n1C1CN(C(O)C(O)CO)C1` (centres unmarked) [M425], for which, in data set [1], the “Relative abundance of MS peak areas, Dog Plasma 0-48 h” value turned out to be 0.98%. Further, in data set [2], the “Relative abundance … Rat Feces 0-48 h” value came out at 2.79%; the “Relative abundance … Rat Urine 0-48 h” value was 2.52%; the “Relative abundance of MS peak areas, Rat Plasma 0-24 h” value was 0.14%.
As to `NC(CSCC(F)C(=O)N1CC(n2c(=O)n(-c3ccc(C(F)(F)F)cc3)c3nccnc32)C1)C(=O)O` (centres unmarked) [M528], the “UV (314 nm) Peak Areas Relative Abundance” value is given as 3.01% in the data set with human hepatocytes; 22.65% in the data set with dog hepatocytes; 18.4% with rat hepatocytes; 24.76% in the data set on mouse hepatocytes; 3.01% in the data set with monkey hepatocytes. Also, the “Relative abundance of MS peak areas, Dog Plasma 0-48 h” value in data set [1] came to 7.65%. For the same compound, the “Relative abundance … Rat Bile 0-48 h” value in data set [2] stood at 43.88%. For the same compound, the “Relative abundance … Rat Feces 0-48 h” value in [2] stood at 1.61%. Besides, in data set [2], the “Relative abundance … Rat Urine 0-48 h” value worked out at 0.69%. The “Relative abundance of MS peak areas, Rat Plasma 0-24 h” value in data set [2] is listed as 1.53%. Further, the “Area ratio in rat urine, mean (%CV)” value in data set [3] is on record as 0.12 (37). Also, the “Change of area ratio in rat urine on coadministration with AOAA” value in data set [3] is “reduced”.
As for `CC(=O)O[C@H]1C(=O)[C@@]2(C)[C@H]([C@H](OC(=O)c3ccccc3)[C@]3(O)C[C@H](OC(=O)[C@H](O)[C@@H](NC(=O)c4ccccc4)c4ccccc4)C(C)=C1C3(C)C)[C@]1(OC(C)=O)CO[C@@H]1C[C@@H]2O` [Paclitaxel, reference compound], the “Inhibition Rate” value with CYP2C8 is recorded as 78.2%.
Regarding `C=CC(=O)N1CC(n2c(=O)n(-c3ccc(C(F)(F)F)cc3)c3nccnc32)C1` [M389], the “Relative abundance of MS peak areas, Dog Plasma 0-48 h” value in data set [1] is recorded as 0.15%. In data set [2], the “Relative abundance … Rat Bile 0-48 h” value amounted to 0.040%; the “Relative abundance … Rat Feces 0-48 h” value was 16.59%; the “Relative abundance … Rat Urine 0-48 h” value was determined as 0.050%; the “Relative abundance of MS peak areas, Rat Plasma 0-24 h” value turned out to be 0.67%.
`CCC(=O)N1CC(n2c(=O)n(-c3ccc(C(F)(F)F)cc3)c3nccnc32)C1` [M391]: in data set [1], the “Relative abundance of MS peak areas, Dog Plasma 0-48 h” value is recorded as 0.36%. For the same compound, in data set [2], the “Relative abundance … Rat Feces 0-48 h” value was determined as 21.50%; the “Relative abundance … Rat Urine 0-48 h” value is 0.015%; the “Relative abundance of MS peak areas, Rat Plasma 0-24 h” value came out at 0.35%.

The values are drawn from paper PMC12376128, “In vitro and In Vivo Drug Metabolism Analysis of BPI-460372 - A Covalent TEAD1/3/4 Inhibitor” (Current Drug Metabolism, 2025).
